What was measured:
[1] = system: mouse acute inflammation model induced by intraperitoneally transplanting Propionibacterium acnes; assay: Anti-inflammatory property evaluation assay: neutrophil count in peritoneal exudate of the P. acnes-induced mouse acute inflammation model; format: in vivo, mouse (male BALB/c); conditions: for anti-inflammatory activity as compared with the RvE2 and o-BZ-RvE2 groups / number of neutrophils in peritoneal exudate as compared with P. acnes-inoculated control mice: 300 pg intraperitoneally 8 hours after P. acnes injection, FIG. 3; for number of neutrophils in peritoneal exudate as compared with P. acnes-inoculated control mice: n=3 or 4
Procedure: The strength of the anti-inflammatory action of each compound was evaluated by using a mouse acute inflammation model induced by intraperitoneally transplanting Propionibacterium acnes.
The mouse acute inflammation model was produced using male BALB/c mice (6 to 7 weeks, obtained from Japan SLC Inc.). First, Propionibacterium acnes (P. acnes; 500 μg per mouse) subjected to heat sterilization was intraperitoneally injected into a mouse to prepare an acute inflammation model mouse. Eight or twelve hours after the injection of Propionibacterium acnes, the test compound was intraperitoneally administered to an acute inflammation model mouse. Then, 24 hours after the injection of Propionibacterium acnes, a peritoneal exudate was collected and the number of neutrophils was counted.
Then, 24 hours after the injection of Propionibacterium acnes, a peritoneal exudate was collected and the number of neutrophils was counted.
12 hours after the injection of Propionibacterium acnes, 300 fg, 300 pg, or 300 ng of RvE2 or o-BZ-RvE2, or only a solvent was independently intraperitoneally administered to acute inflammation model mice (n=3 or 4). Then, 24 hours after the injection of Propionibacterium acnes, a peritoneal exudate was collected and the number of neutrophils was counted.
300 pg of RvE2, o-BZ-RvE2, 17-deoxy-o-BZ-RvE2, 5-deoxy-o-BZ-RvE2, or 5,17-dideoxy-o-BZ-RvE2, or only a solvent was intraperitoneally administered to acute inflammation model mice 8 hours after the injection of Propionibacterium acnes (n=3 or 4). Then, 24 hours after the injection of Propionibacterium acnes, a peritoneal exudate was collected and the number of neutrophils was counted.

[2] = Evaluation of metabolic stability with human liver microsomes (HPLC remaining rate); format: in vitro ADME; conditions: 37° C.; for temporal change in the remaining rate in the presence of human liver microsomes: 0.1 M PBS (pH 7.4), HPLC, n=3, FIG. 4; for metabolic stability / degradation by human liver microsomes (in words): Example 1, 0-6 hours, FIG. 2
Procedure: 60 μL was aliquoted from an ethanol solution (1 mg/1 mL) of the synthetic compound to be evaluated, and the solvent was removed. A 0.1 M PBS buffer (435 μL, pH 7.4), CH3CN (10 μL), an NADPH regeneration system A solution (25 μL), and an NADPH regeneration system B solution (5 μL) were added to each compound, and stirring was carried out with a vortex mixer. After incubating the obtained reaction solution at 37° C. for 5 minutes, human liver microsomes (Corning (registered trade name) UltraPool (registered trade name) HLM 150) (25 μL) were added thereto, and 80 μL of the solution was aliquoted every hour (after 0, 1, 2, 3, and 6 hours from the addition). Each of the aliquoted solutions was quenched by adding CH3CN (80 μL) and then centrifuged (10,000 rpm) for 3 minutes at room temperature. The supernatant was collected and analyzed by using HPLC (COSMOSIL 5C18-MS-II, 4.6 mm×250 mm, CH3CN/H2O/TFA=35/65/0.01, 1.0 mL/min, detection at 254 nm).
The metabolic stability of 17-deoxy-o-BZ-RvE2 and 5-deoxy-o-BZ-RvE2 with respect to human liver microsomes was investigated. Specifically, for RvE2, o-BZ-RvE2, 17-deoxy-o-BZ-RvE2, and 5-deoxy-o-BZ-RvE2, the temporal change in the remaining rate (%) was measured by HPLC in 0.1 M PBS (pH 7.4) in the presence of human liver microsomes at 37° C. (n=3).

[3] = background statement; cited from earlier work
[4] = background statement; cited from earlier work; remark: listed apart in the source
[5] = exudate collected 24 hours after injection

## CCC/C=C/c1ccccc1C/C=C/CCCCC(=O)O [5,17-dideoxy-o-BZ-RvE2]
[1]; exudate at 24 hours
  anti-inflammatory activity as compared with the RvE2 and o-BZ-RvE2 groups: attenuated
[1]; [5]
  number of neutrophils in peritoneal exudate as compared with P. acnes-inoculated control mice: significantly decreased

## CC[C@@H](O)/C=C/c1ccccc1C/C=C/CCCCC(=O)O [5-deoxy-o-BZ-RvE2]
[2]
  temporal change in the remaining rate in the presence of human liver microsomes: gradually decreased as compared with RvE2
[1]; exudate at 24 hours
  anti-inflammatory activity as compared with the RvE2 and o-BZ-RvE2 groups: attenuated
[1]; [5]
  number of neutrophils in peritoneal exudate as compared with P. acnes-inoculated control mice: significantly decreased

## CCC(O)C=CC=CCC1CC1CC=CC=CC(O)CCCC(=O)O (centres unmarked) [CP-RvE2]
[3]
  metabolic stability: insufficient metabolic stability
[4]
  stability with respect to oxygen as compared with RvE2: improved stability with respect to oxygen

## CC[C@@H](O)/C=C/C=C\C/C=C\C/C=C\C=C\[C@@H](O)CCCC(=O)O [RvE2, (5S,6E,8Z,11Z,14Z,16E,18R)-5,18-dihydroxyicosa-6,8,11,14,16-pentaenoic acid, reference compound]
[2]
  temporal change in the remaining rate in the presence of human liver microsomes: decreased with the passage of time
  metabolic stability / degradation by human liver microsomes (in words): easily degraded
[1]; [5]
  number of neutrophils in peritoneal exudate as compared with P. acnes-inoculated control mice: significantly decreased

## CC[C@@H](O)/C=C/c1ccccc1C/C=C/[C@@H](O)CCCC(=O)O [o-BZ-RvE2]
[2]
  metabolic stability / degradation by human liver microsomes (in words): excellent in metabolic stability
[1]; [5]
  number of neutrophils in peritoneal exudate as compared with P. acnes-inoculated control mice: significantly decreased
[1]; 300 pg intraperitoneally 12 hours after P. acnes injection, exudate collected 24 hours after injection, n=4, FIG. 1(a)
  infiltration of neutrophils into the abdominal cavity (number of neutrophils in peritoneal exudate) as compared with solvent alone: significantly suppressed
[1]; 300 fg, 300 pg or 300 ng intraperitoneally 12 hours after P. acnes injection, exudate at 24 hours, FIGS. 1(a) and 1(b)
  anti-inflammatory action as compared with RvE2: excellent anti-inflammatory action as compared with RvE2

Reference: patent publication US20230099067A1, “STABLE EQUIVALENT OF RESOLVIN E2” (NATIONAL UNIVERSITY CORPORATION HOKKAIDO UNIVERSITY, priority 2020, published 2023)
